Measurements as given in patent US3972991A, “Radioisotopic assay and binder therefor” (priority 1974, dated 1976).
Counter-ions that a name gives are not always drawn. Each block holds one molecule with its values, some of them ahead of it.

Key:
hog kidney folate binder = test: direct competition for PGA binding sites in hog kidney folate binder (FIG. 6A)
Protocol: The reaction was started by addition of folate binder and allowed to proceed for 30 minutes at room temperature in the dark. The reaction was stopped by placing the tubes on ice and adding 1.0 ml of a suspension of powdered activated charcoal coated with albumin. After 2 to 3 minutes on ice, the tubes were centrifuged at 6000 × G for 10 minutes at 4°C to remove the charcoal absorbed "free" folate. 1.0 ml of the clear supernatant fluid which contained the folate/binder complex was counted by liquid scintillation spectroscopy according to known procedures. Charcoal controls prepared by substituting buffer for binder in one series of tubes were prepared to determine the number of counts not removed by the charcoal. Percent maximum binding was calculated by the formula [formula]

hog kidney binder factor [1] = test: rate of PGA binder complex formation and dissociation; type: binding; details: for initial rate of binding: 3H-PGA approximately 20% excess
Protocol: The rate of PGA binder complex formation with hog kidney binder factor was determined at several temperatures by equilibrating solutions of the binder and of ^3 H-PGA at the appropriate temperature and then combining aliquots of each such that the ^3 H-PGA was in approximately 20% excess to the binding capacity of the hot kidney binder factor composition. The reaction was terminated by the addition of 1.0 ml of ice cold suspension of powdered activated charcoal coated with albumin.

storage stability = type: physicochemical
Protocol: The standard or known folate (d,1,L-5-methyltetrahydrofolic acid) (Sigma Chemical) is dissolved in 0.05 M potassium phosphate buffer pH 7.6 and then brought to 0.1 M with 2-mercapto-ethanol. Here the mercapto-alcohol acts as a stabilizer for the folate or folic acid.
High specific activity ^3 H-PGA (15-50 Ci/m mole; Amersham Searle) is conveniently utilized as the tracer or labeled compound. It is dissolved in 20% ethanol and stored at -80°C. For use in the assay, the stock solution is diluted 1:100 in potassium phosphate buffer (0.05 M pH 7.6).
Finely divided activated charcoal coated with albumin is prepared by mixing equal volumes of a 5% powdered activated charcoal (Norit A) suspension (w/v, in distilled water) and a 1% aqueous solution of bovine albumin (Fraction V of Cohn).
Blood to be assayed for folate is obtained by venapuncture and allowed to clot at room temperature. The serum is collected by centrifugation and 5 milligrams of ascorbic acid per milliliter of serum is added.

hog kidney binder = test: direct binding studies with labeled folates on hog kidney binder
hog kidney binder factor [2] = test: effect of enzymes, pH, ions, chelators, denaturants and other agents on binding of 3H-PGA to hog kidney binder; details: for effect on binding activity of the binder composition: before complex formation
hog kidney binder factor [3] = test: sequential addition of unlabeled folate derivatives and 3H-PGA, displacement (FIG. 6B); type: binding; details: PGA curve of FIG. 6B
Protocol: The binding conditions were similar to those used in obtaining the data appearing in FIG. 6A except that 3 pmoles of ^3 H-PGA was added to the reaction containing enough binder factor to bind about 2.5 pmoles of PGA. The binder was preincubated for 30 minutes in the dark at room temperature with unlabeled folate derivatives as indicated. Then the ^3 H-PGA was added and the reaction allowed to continue for an additional 30 minutes and then stopped and counted as in obtaining the data for FIG. 6A.
The calculated curve of FIG. 6B depicts the relationship to be expected by balancing on a molar basis the binding capacity of the hog kidney binder factor with the known pmoles of folate analog added in the absence of any displacement. […] The hog kidney binder factor thus differs from other high affinity folate binder factors such as those found in milk and in serum and in leukocytes of some patients with chronic granulocytic leukemia.

All other binder factors = test: inactivation of other binder factors by trypsin; type: binding; details: trypsin solution 1:250, 1 mg/ml
Protocol: Preincubating a 1.0 ml aliquot of binder extract from hog kidney having a binding capacity of 25 ng PGA/ml, with 1.0 ml RNase (Worthington, 2 micrograms per ml) or with DNase I (Worthington 2 micrograms per ml) for 30 minutes at 37°C had no effect on the binding of ^3 H-PGA. […] All other binder factors are inactivated by a trypsin solution 1:250, 1 mg/ml.

competition for PGA binding sites (hog kidney folate binder): high degree of competition
Molecule: Nc1nc2c(c(=O)[nH]1)NC(CN(C=O)c1ccc(C(=O)N[C@@H](CCC(=O)O)C(=O)O)cc1)CN2 (stereo partly shown) [N-10, formyltetrahydrofolic acid]

initial rate of binding (hog kidney binder factor [1]; 4°C): about 0.65 % per second
initial rate of binding (hog kidney binder factor [1]; 21°C): 1.3 % per second
initial rate of binding (hog kidney binder factor [1]; 37°C): 2.5 % per second
stability (storage stability): unstable
Molecule: ^3 H-pteroylmonoglutamate [^3 H-PGA]
disassociation of the 3H-PGA binder complex (hog kidney binder factor [1]; one hour at 37°C, 50-fold excess of unlabeled PGA): no significant disassociation

binding results compared with those obtained with 3H-PGA (hog kidney binder): essentially the same
bound by the extract, of the available labeled folate (hog kidney binder): more than 90%
Molecule: [14CH3]N1c2c([nH]c(N)nc2=O)NCC1CNc1ccc(C(=O)N[C@@H](CCC(=O)O)C(=O)O)cc1 (stereo partly shown) [^14 C--5CH3 FH4]

binding affinity less than that of 3H-PGA (hog kidney binder; direct binding, 3H-MTX 13 Ci/mmole): at least 500 times
Molecule: CN(Cc1cnc2nc(N)nc(N)c2n1)c1ccc(C(=O)N[C@@H](CCC(=O)O)C(=O)O)cc1 [^3 H-MTX, ^3 H-methotrexate]

competition for PGA binding sites (hog kidney folate binder): high degree of competition
Molecule: Nc1nc2c(c(=O)[nH]1)NC(CNc1ccc(C(=O)N[C@@H](CCC(=O)O)C(=O)O)cc1)CN2 (stereo partly shown) [d, 1-tetrahydrofolic acid]

Molecule: c1cnc2c(c1)ccc1cccnc12 [o-phenanthroline]
effect on the binding reaction (hog kidney binder factor [2]; concentrations up to 2.0 × 10^-^6 M): no effect

Molecule: OCCS [2-mercaptoethanol]
effect on the binding reaction (hog kidney binder factor [2]; concentrations of 10^-^7 to 10^-^1 M): no effect

Molecule: [Ca+2] [calcium]
effect on binding at any pH (hog kidney binder factor [2]; 5 mM): No effect

Molecule: [Zn] [zinc]
effect on binding at any pH (hog kidney binder factor [2]; 5 mM): No effect

Molecule: O=C(O)CN(CCN(CC(=O)O)CC(=O)O)CC(=O)O [EDTA, ethyldiamine tetraacetic acid]
effect on binding at any pH (hog kidney binder factor [2]; 20 mM): No effect

Molecule: [Mg+2] [magnesium]
effect on binding at any pH (hog kidney binder factor [2]; 5 mM): No effect

Molecule: O=C(O)CC(O)(CC(=O)O)C(=O)O [citrate]
effect on binding at any pH (hog kidney binder factor [2]; 10 mM): No effect

Molecule: N=C(N)N [guanidine hydrochloride]
effect on folate binder complex after it had formed (hog kidney binder factor [2]; 6 M): could disrupt the complex
reversibility of the guanidine hydrochloride effect (hog kidney binder factor [2]; 6 M): nearly completely reversible
effect on binding activity of the binder composition (hog kidney binder factor [2]; 6 M): binding activity was lost

Molecule: NC(N)=O [urea]
effect on folate binder complex after it had formed (hog kidney binder factor [2]; 8 M): no effect
effect on binding activity of the binder composition (hog kidney binder factor [2]; 8 M): binding activity was lost

Molecule: CN1c2c(nc(N)[nH]c2=O)NCC1CNc1ccc(C(=O)N[C@@H](CCC(=O)O)C(=O)O)cc1 (stereo partly shown) [5CH3 FH4, d,1,5-methyltetrahydrofolic acid]
tightness of binding of the hog kidney binder factor with PGA and 5CH3 FH4 (hog kidney binder factor [3]): approximately equal
amount required to achieve 50% inhibition of 3H-PGA binding (hog kidney folate binder; FIG. 6A, 0.225 pmoles 3H-PGA, pH 7.6, total volume 1.0 ml, 30 min room temperature): about 0.32 pmoles
stability of stock solution (storage stability; approximately 5 micrograms per ml, 0.1 M 2-mercaptoethanol, pH 7.6, -80°C): at least 6 months

B1: trypsin: solution of trypsin (protein, UniProt P00760 24-246, looked up)
Serine protease 1: IVGGYTCGANTVPYQVSLNSGYHFCGGSLINSQWVVSAAHCYKSGIQVRLGEDNINVVEGNEQFISASKSIVHPSYNSNTLNNDIMLIKLKSAASLNSRVASISLPTSCASAGTQCLISGWGNTKSSGTSYPDVLKCLKAPILSDSSCKSAYPGQITSNMFCAGYLEGGKDSCQGDSGGPVVCSGKLQGIVSWGSGCAQKNKPGVYTKVCNYVSWIKQTIASN
effect of preincubation with trypsin on hog binder factor (hog kidney binder factor [2]; 1.0 ml trypsin solution, 30 minutes): completely inactivated
inactivation of other binder factors by trypsin (All other binder factors): inactivated

B2: RNase: RNase (Worthington) (protein, UniProt P61823 27-150, looked up)
Ribonuclease pancreatic: KETAAAKFERQHMDSSTSAASSSNYCNQMMKSRNLTKDRCKPVNTFVHESLADVQAVCSQKNVACKNGQTNCYQSYSTMSITDCRETGSSKYPNCAYKTTQANKHIIVACEGNPYVPVHFDASV
effect of preincubation on binding of 3H-PGA (hog kidney binder factor [2]; 2 micrograms per ml, 30 minutes at 37°C): no effect
